Data taken from patent US20260364185A1, “Estrogen Receptor Modulator and Use Thereof” (JIANGSU VCARE PHARMATECH CO., LTD., priority 2023, published 2026).

Test system: MCF7 cells
Test: MCF7 cell activity test (CCK8 proliferation inhibition)
Format: cell-based
Details: Homo sapiens, MCF7, 144 h, 6 days incubation
Description: Experimental Example 1: MCF7 cell activity test
Cell culture: MCF7 cells (culture conditions: MEM medium+20% FBS+1% essential amino acids++1 mg/100 ml insulin, 37° C., 5% CO2). Plating: The cells subcultured into the logarithmic growth phase were collected and transferred into a centrifuge tube, and centrifuged at 800 rpm for 5 min. The cells were resuspended in complete medium and counted. The cells were diluted and adjusted to a final concentration of 30,000 cells/mL. The cells were then seeded into a 96-well plate with 100 μL per well and incubated in an incubator overnight. Administration: Each group of drug solutions was added into the 96-well plate, 100 μL per well, n=3 for each drug concentration. Meanwhile, negative wells (n=6) and blank wells (n=3) were set up. The 96-well plate was incubated in the incubator for further 6 days. CCK8 reagent was added to the 96-well plate, 20 μL per well, and then the plate was placed in the incubator for further 4 h. The absorbance of the solution was measured at a wavelength of 450 nm using an enzyme reader. The proliferation inhibition rate was calculated and the half inhibitory concentration IC50 value was calculated using Graphpad Prism 6.0 software.

SMILES | IC50 [µM]
Cn1nc(C2CCC(=O)NC2=O)c2ccc(N3CCN(C[C@@H]4CCCC[C@H]4CN4CCN(c5ccc([C@@H]6c7ccc(O)cc7CC[C@@H]6c6ccccc6)cc5)CC4)CC3)cc21 (stereo partly drawn) [IV-3, 3-(6-(4-(((1R,2R)-2-((4-(4-((1R,2S)-6-hydroxy-2-phenyl-1,2,3,4-tetrahydronaphthalen-1-yl)phenyl)piperazin-1-yl)methyl)cyclohexyl)methyl)piperazin-1-yl)-1-methyl-1H-indazol-3-yl)piperidine-2,6-dione] | < 0.025
Cn1nc(C2CCC(=O)NC2=O)c2ccc(N3CCN(C[C@H]4CCCC[C@@H]4CN4CCN(c5ccc([C@@H]6c7ccc(O)cc7CC[C@@H]6c6ccccc6)cc5)CC4)CC3)cc21 (stereo partly drawn) [IV-4, 3-(6-(4-(((1S,2S)-2-((4-(4-((1R,2S)-6-hydroxy-2-phenyl-1,2,3,4-tetrahydronaphthalen-1-yl)phenyl)piperazin-1-yl)methyl)cyclohexyl)methyl)piperazin-1-yl)-1-methyl-1H-indazol-3-yl)piperidine-2,6-dione] | < 0.1
Cn1nc(N2CCC(=O)NC2=O)c2cc(F)c(N3CCN(C[C@@H]4CCCC[C@H]4CN4CCN(c5ccc([C@@H]6c7ccc(O)cc7CC[C@@H]6c6ccccc6)cc5)CC4)CC3)cc21 [IV-5] | < 0.025
Cn1nc(C2CCC(=O)NC2=O)c2cc(F)c(C3CCN(C[C@H]4CCCC[C@@H]4CN4CCN(c5ccc([C@@H]6c7ccc(O)cc7CC[C@@H]6c6ccccc6)cc5)CC4)CC3)cc21 (stereo partly drawn) [IV-10, 3-(5-fluoro-6-(1-(((1S,2S)-2-((4-(4-((1R,2S)-6-hydroxy-2-phenyl-1,2,3,4-tetrahydronaphthalen-1-yl)phenyl)piperazin-1-yl)methyl)cyclohexyl)methyl)piperidin-4-yl)-1-methyl-1H-indazol-3-yl)piperidin-2,6-dione] | < 0.05
O=C1CCC(n2ncc3cc(N4CCN(C[C@@H]5CCCC[C@H]5CN5CCN(c6ccc([C@@H]7c8ccc(O)cc8CC[C@@H]7c7ccccc7)cc6)CC5)CC4)c(F)cc32)C(=O)N1 (stereo partly drawn) [VI-5] | < 0.05
O=C1CCC(n2ncc3cc(N4CCN(C[C@@H]5CCCC[C@H]5CN5CCN(c6ccc([C@@H]7c8ccc(O)cc8CC[C@@H]7c7ccccc7)cc6)CC5)CC4)ccc32)C(=O)N1 (stereo partly drawn) [VI-6] | < 0.1
Cc1nn(C2CCC(=O)NC2=O)c2ccc(C3CCN(C[C@@H]4CCCC[C@H]4CN4CCN(c5ccc([C@@H]6c7ccc(O)cc7CC[C@@H]6c6ccccc6)cc5)CC4)CC3)cc12 (stereo partly drawn) [VI-8] | < 0.05
Cc1nn(C2CCC(=O)NC2=O)c2cc(F)c(C3CCN(C[C@@H]4CCCC[C@H]4CN4CCN(c5ccc([C@@H]6c7ccc(O)cc7CC[C@@H]6c6ccccc6)cc5)CC4)CC3)cc12 (stereo partly drawn) [VI-9] | < 0.1
Cn1nc(N2CCC(=O)NC2=O)c2cc(F)c(C3CC4CCC(C3)N4C[C@@H]3CCCC[C@H]3CN3CCN(c4ccc([C@@H]5c6ccc(O)cc6CC[C@@H]5c5ccccc5)cc4)CC3)cc21 (stereo partly drawn) [VI-17] | < 0.025
Cn1nc(N2CCC(=O)NC2=O)c2cc(F)c(C3CCN(C[C@@H]4CCCC[C@H]4CN4CCN(c5ccc([C@@H]6c7ccc(O)cc7CC[C@@H]6c6ccccc6)cc5)CC4)C4(CC4)C3)cc21 (stereo partly drawn) [VI-18] | < 0.025
Cn1nc(N2CCC(=O)NC2=O)c2cc(F)c(C3CCN(C4CCN(C[C@@H]5CCCC[C@H]5CN5CCN(c6ccc([C@@H]7c8ccc(O)cc8CC[C@@H]7c7ccccc7)cc6)CC5)CC4)CC3)cc21 [VI-19] | < 0.05
C[C@@H]1CC(c2cc3c(cc2F)c(N2CCC(=O)NC2=O)nn3C)CCN1C[C@@H]1CCCC[C@H]1CN1CCN(c2ccc([C@@H]3c4ccc(O)cc4CC[C@@H]3c3ccccc3)cc2)CC1 (stereo partly drawn) [VI-20] | < 0.025
C[C@H]1CC(c2cc3c(cc2F)c(N2CCC(=O)NC2=O)nn3C)CCN1C[C@@H]1CCCC[C@H]1CN1CCN(c2ccc([C@@H]3c4ccc(O)cc4CC[C@@H]3c3ccccc3)cc2)CC1 (stereo partly drawn) [VI-21] | < 0.05
C[C@@H]1CC(c2cc3c(cc2F)c(N2CCC(=O)NC2=O)nn3C)C[C@H](C)N1C[C@@H]1CCCC[C@H]1CN1CCN(c2ccc([C@@H]3c4ccc(O)cc4CC[C@@H]3c3ccccc3)cc2)CC1 (stereo partly drawn) [VI-22] | < 0.05
Cn1nc(N2CCC(=O)NC2=O)c2cc(F)c(C3CCC(N4CCN(C[C@@H]5CCCC[C@H]5CN5CCN(c6ccc([C@@H]7c8ccc(O)cc8CC[C@@H]7c7ccccc7)cc6)CC5)CC4)CC3)cc21 (stereo partly drawn) [VI-24] | < 0.025
Cn1nc(N2CCC(=O)NC2=O)c2cc(F)c(C3CCC(N(C[C@@H]4CCCC[C@H]4CN4CCN(c5ccc([C@@H]6c7ccc(O)cc7CC[C@@H]6c6ccccc6)cc5)CC4)C4CC4)CC3)cc21 (stereo partly drawn) [VI-25] | < 0.1
Cn1nc(N2CCC(=O)NC2=O)c2cc(F)c(N3CC4(CN(C[C@@H]5CCCC[C@H]5CN5CCN(c6ccc([C@@H]7c8ccc(O)cc8CC[C@@H]7c7ccccc7)cc6)CC5)C4)C3)cc21 [VI-26] | < 0.05
Cn1nc(N2CCC(=O)NC2=O)c2cc(F)c(N3CC4(CCN(C[C@@H]5CCCC[C@H]5CN5CCN(c6ccc([C@@H]7c8ccc(O)cc8CC[C@@H]7c7ccccc7)cc6)CC5)CC4)C3)cc21 [VI-27] | < 0.025
COC1(c2cc3c(cc2F)c(N2CCC(=O)NC2=O)nn3C)CCN(C[C@@H]2CCCC[C@H]2CN2CCN(c3ccc([C@@H]4c5ccc(O)cc5CC[C@@H]4c4ccccc4)cc3)CC2)CC1 [VI-28] | < 0.025
C[C@@H]1CC(O)(c2cc3c(cc2F)c(N2CCC(=O)NC2=O)nn3C)CCN1C[C@@H]1CCCC[C@H]1CN1CCN(c2ccc([C@@H]3c4ccc(O)cc4CC[C@@H]3c3ccccc3)cc2)CC1 (stereo partly drawn) [VI-29, 1-(5-fluoro-6-((2R)-4-hydroxy-1-(((1R, 2R)-2-((4-(4-((1R, 2S)-6-hydroxy-2-phenyl-1,2,3,4-tetrahydronaphthalen-1-yl)phenyl)piperazin-1-yl)methyl)cyclohexyl)methyl)-2-methylpiperidin-4-yl)-1-methyl-1H-indazol-3-yl)dihydropyrimidine-2,4 (1H,3H)-dione] | < 0.025
C[C@H]1CC(O)(c2cc3c(cc2F)c(N2CCC(=O)NC2=O)nn3C)CCN1C[C@@H]1CCCC[C@H]1CN1CCN(c2ccc([C@@H]3c4ccc(O)cc4CC[C@@H]3c3ccccc3)cc2)CC1 (stereo partly drawn) [VI-30, 1-(5-fluoro-6-((2S)-4-hydroxy-1-(((1R,2R)-2-((4-(4-((1R,2S)-6-hydroxy-2-phenyl-1,2,3,4-tetrahydronaphthalen-1-yl)phenyl)piperazin-1-yl)methyl)cyclohexyl)methyl)-2-methylpiperidin-4-yl)-1-methyl-1H-indazol-3-yl)dihydropyrimidine-2,4 (1H,3H)-dione] | < 0.05
Cn1c(=O)n(C2CCC(=O)NC2=O)c2cccc(N3CCN(C[C@@H]4CCCC[C@H]4CN4CCN(c5ccc([C@@H]6c7ccc(O)cc7CC[C@@H]6c6ccccc6)cc5)CC4)CC3)c21 (stereo partly drawn) [VII-1, 3-(4-(4-(((1R,2R)-2-((4-(4-((1R,2S)-6-hydroxy-2-phenyl-1,2,3,4-tetrahydronaphthalen-1-yl)phenyl)piperazin-1-yl)methyl)cyclohexyl)methyl)piperazin-1-yl)-3-methyl-2-oxo-2,3-dihydro-1H-benzo[d]imidazol-1-yl)piperidine-2,6-dione] | < 0.05
Cn1c(=O)n(C2CCC(=O)NC2=O)c2ccc(N3CCN(C[C@@H]4CCCC[C@H]4CN4CCN(c5ccc([C@@H]6c7ccc(O)cc7CC[C@@H]6c6ccccc6)cc5)CC4)CC3)cc21 (stereo partly drawn) [VII-2] | < 0.1
Cn1c(=O)n(C2CCC(=O)NC2=O)c2cccc(C3CCN(C[C@@H]4CCCC[C@H]4CN4CCN(c5ccc([C@@H]6c7ccc(O)cc7CC[C@@H]6c6ccccc6)cc5)CC4)CC3)c21 (stereo partly drawn) [VII-3] | < 0.1
